Source: US20260176284A1, “Compounds with Anti-KRAS Mutated Tumor Activity” (Trasveda Ltd., priority 2022, published 2026)

What was measured:
[1] = test system: KRAS G12D mutated AGS human gastric adenocarcinoma cells; experiment: Proliferation inhibition of KRAS G12D mutant AGS cells (CellTiter-Glo, 3 days; IC50 and single-point inhibition rate at 1 μM); assay type: cell-based; settings: 72 h, 3 days incubation, max concentration 10 μM
Method: This experiment assessed and validated the proliferation inhibitory activity of some compounds of the present invention against KRAS G12D mutant AGS cells.
Incubate at 37° C., 5% CO2, 95% humidity.
The following materials, instruments, and reagents were used in this experiment: Fetal Bovine Serum FBS (GIBCO, Cat #10099-141); CellTiter-Glo® Luminescent Cell Viability Assay (Promega, Cat #G7572); 96-well clear flat-bottom black-wall plate (Corning®, Cat #3603); SpectraMax multimode microplate reader (MD, 2104-0010A); CO2 Incubator (Thermo Scientific, Model 3100 Series); Biosafety cabinet (Thermo Scientific, Model 1300 Series A2); Inverted microscope (Olympus, CKX41SF); AGS cell line was purchased from Nanjing Kebai Biotechnology Co., Ltd., under the lot number CBP60476.
Cell culture and inoculation: The cells in the logarithmic growth phase were harvested, and cell counting was performed using a platelet counter. The cell viability was detected by Trypan Blue exclusion method to ensure that the cell viability was above 90%. The cell concentration was adjusted. Then, 90 μL of the cell suspension was added to each well of a 96-well plate respectively, and the cells in the 96-well plate were cultured at 37° C. and 5% CO2.
Drug dilution and addition: a) For the preparation of drugs for single-point inhibition rate determination: A 10-fold concentrated drug solution was prepared. 10 μL of the drug solution was added to each well of the 96-well plate inoculated with cells to make the working concentration 1 μM, and three replicate wells were set for each drug concentration; b) For the preparation of drugs for IC50 determination: A 10-fold concentrated drug solution was prepared. 10 μL of the drug solution was added to each well of the 96-well plate inoculated with cells to make the maximum working concentration 10 μM, with a 3.16× dilution and a total of 9 concentrations. Three replicate wells were set for each drug concentration. The cells in the 96-well plate with the added drugs were incubated at 37° C. and 5% CO2 for another 3 days, and then the CTG assay was performed.
The CTG reagent was thawed, and the cell plate was equilibrated to room temperature for 30 minutes. An equal volume of CTG solution was added to each well, and the plate was shaken on an orbital shaker for 5 minutes to lyse the cells. The cell plate was placed at room temperature for 20 minutes to stabilize the luminescence signal, and then the luminescence value was read.
The data were analyzed using GraphPad Prism 7.0 software. The data were fitted by nonlinear S-curve regression to obtain the dose-response curve, and the IC50 value was calculated accordingly.

[2] = test system: KRAS G12D mutated AGS human gastric adenocarcinoma cells; experiment: Proliferation inhibition of KRAS G12D mutant AGS cells, another experiment with similar protocol (includes MRTX1133); assay type: cell-based
Method: In another experiment, using a protocol similar to the one described above, the inhibitory activity of some representative compounds of the present invention against KRAS G12D mutated AGS human gastric adenocarcinoma cells was determined.
The synthesis of compound MRTX1133 was performed according to the method described in J. Med. Chem. 2022, 65, 4, 3123-3133.

| Compound | IC50 [1] [nM] | IC50 ([2]; Homo sapiens) [nM] | further results |
| --- | --- | --- | --- |
| C#Cc1c(F)ccc2cc(O)cc(-c3c(F)cc4c(N5CC6CCC(C5)N6)nc(OCC5(F)CCCN(C)C5)nc4c3F)c12 (atropisomer, axis not shown; (Ra)) [Example 1, (Ra)-4-(4-((1R,5S)-3,8-diazabicyclo[3.2.1]octan-3-yl)-6,8-difluoro-2-(3-fluoro-1-methylpiperidin-3-yl)methoxy)quinazolin-7-yl)-5-ethynyl-6-fluoronaphthalen-2-ol·diformate] | 94 |  |  |
| C#Cc1c(F)ccc2cc(O)cc(-c3c(F)cc4c(N5CC6CCC(C5)N6)nc(OCC5(C)CCCN(C)C5)nc4c3F)c12 (atropisomer, axis not shown; (Ra)) [Example 2, (Ra)-4-(4-((1R,5S)-3,8-diazabicyclo[3.2.1]octan-3-yl)-2-((1,3-dimethylpiperidin-3-yl)methoxy)-6,8-difluoroquinazolin-7-yl)-5-ethynyl-6-fluoronaphthalen-2-ol·dicarboxylate] | 50 |  |  |
| C#Cc1c(F)ccc2cc(O)cc(-c3c(F)cc4c(N5CC6CCC(C5)N6)nc(OCC5(C)CCCN(CCOC)C5)nc4c3F)c12 (atropisomer, axis not shown; (Ra)) [Example 3, (Ra)-4-(4-((1R,5S)-3,8-diazabicyclo[3.2.1]octan-3-yl)-6,8-difluoro-2-(1-(2-methoxyethyl)-3-methylpiperidin-3-yl)methoxy)quinazolin-7-yl)-5-ethynyl-6-fluoronaphthalen-2-ol·formate] | 158 |  |  |
| C#Cc1c(F)ccc2cc(O)cc(-c3c(F)cc4c(N5CC6CCC(C5)N6)nc(OCC5(C)CCCN(CCF)C5)nc4c3F)c12 (atropisomer, axis not shown; (Ra)) [Example 4, (Ra)-4-(4-((1R,5S)-3,8-diazabicyclo[3.2.1]octan-3-yl)-6,8-difluoro-2-(1-(2-fluoroethyl)-3-methylpiperidin-3-yl)methoxy)quinazolin-7-yl)-5-ethynyl-6-fluoronaphthalen-2-ol·diformate] | 88 |  |  |
| C#Cc1c(F)ccc2cc(O)cc(-c3c(F)cc4c(N5CC6CCC(C5)N6)nc(OCC5(C)CN(C)CCC5OC)nc4c3F)c12 (atropisomer, axis not shown; (Ra)) [Example 5, (Ra)-4-(4-(((1R,5S)-3,8-diazabicyclo[3.2.1]octan-3-yl)-6,8-difluoro-2-(4-methoxy-1,3-dimethylpiperidin-3-yl)methoxy)quinazolin-7-yl)-5-ethynyl-6-fluoronaphthalen-2-ol·diformate] | 175 |  |  |
| C#Cc1c(F)ccc2cc(O)cc(-c3c(F)cc4c(N5CC6CCC(C5)N6)nc(OCC5(C)CN(C)CCC5(F)F)nc4c3F)c12 (atropisomer, axis not shown; (Ra)) [Example 6, (Ra)-4-(4-((1R,5S)-3,8-diazabicyclo[3.2.1]octan-3-yl)-2-((4,4-difluoro-1,3-dimethylpiperidin-3-yl)methoxy)-6,8-difluoroquinazolin-7-yl)-5-ethynyl-6-fluoronaphthalen-2-ol] | 55 |  |  |
| C#Cc1c(F)ccc2cc(O)cc(-c3c(F)cc4c(N5CC6CCC(C5)N6)nc(OCC56CC5CCN(C)C6)nc4c3F)c12 (atropisomer, axis not shown; (Ra)) [Example 9, (Ra)-4-(4-((1R,5S)-3,8-diazabicyclo[3.2.1]octan-3-yl)-6,8-difluoro-2-((3-methyl-3-azabicyclo[4.1.0]heptan-1-yl)methoxy)quinazolin-7-yl)-5-ethynyl-6-fluoronaphthalen-2-ol·diformate] | 347 |  |  |
| C#Cc1c(F)ccc2cc(O)cc(-c3c(F)cc4c(N5CC6CCC(C5)N6)nc(OCC5COCCN(C)C5)nc4c3F)c12 (stereo not shown) [Example 7] | 781 |  |  |
| C#Cc1c(F)ccc2cc(O)cc(-c3c(F)cc4c(N5CC6CCC(C5)N6)nc(OCC5(C)CCCCN(CCOC)C5)nc4c3F)c12 [Example 8, 4-(4-((1R,5S)-3,8-diazabicyclo[3.2.1]octane-3-yl)-6,8-difluoro-2-((1-(2-methoxyethyl)-3-methylazepan-3-yl)methoxy)quinazolin-7-yl)-5-ethynyl-6-fluoronaphthalen-2-ol·triformate] | 251 |  |  |
| C#Cc1c(F)ccc2cc(O)cc(-c3nc(OC)c4c(N5C[C@H]6CC[C@@H](C5)N6)nc(OC[C@]5(C)CN(C)CC[C@@H]5CF)nc4c3F)c12 [Example 260, 4-(4-((1R,5S)-3,8-diazabicyclo[3.2.1]octan-3-yl)-8-fluoro-2-(((3S,4S)-4-(fluoromethyl)-1,3-dimethylpiperidin-3-yl)methoxy)-5-methoxypyrido[4,3-d]pyrimidin-7-yl)-5-ethynyl-6-fluoronaphthalen-2-ol] |  | 3 |  |
| C#Cc1c(F)ccc2cc(O)cc(-c3nc(OC)c4c(N5C[C@H]6CC[C@@H](C5)N6)nc(OC[C@]5(C)CN(C)CC[C@@H]5F)nc4c3F)c12 [Example 262, 4-(4-((1R,5S)-3,8-diazabicyclo[3.2.1]octan-3-yl)-8-fluoro-2-(((3S,4S)-4-fluoro-1,3-dimethylpiperidin-3-yl)methoxy)-5-methoxypyrido[4,3-d]pyrimidin-7-yl)-5-ethynyl-6-fluoronaphthalen-2-ol] |  | 15 |  |
| C#Cc1c(F)ccc2cc(O)cc(-c3nc(OC)c4c(N5C[C@H]6CC[C@@H](C5)N6)nc(OC[C@]5(C)CN(C)CC[C@H]5F)nc4c3F)c12 [Example 263, 4-(4-((1R,5S)-3,8-diazabicyclo[3.2.1]octan-3-yl)-8-fluoro-2-(((3S,4R)-4-fluoro-1,3-dimethylpiperidin-3-yl)methoxy)-5-methoxypyrido[4,3-d]pyrimidin-7-yl)-5-ethynyl-6-fluoronaphthalen-2-ol] |  | 12 |  |
| CN1CC[C@H](C(F)F)[C@](C)(COc2nc(N3C[C@H]4CC[C@@H](C3)N4)c3cc(Cl)c(-c4cccc5sc(N)c(C#N)c45)c(F)c3n2)C1 [Example 312, 4-(4-((1R,5S)-3,8-diazabicyclo[3.2.1]octan-3-yl)-6-chloro-2-(((3S,4S)-4-(difluoromethyl)-1,3-dimethylpiperidin-3-yl)methoxy)-8-fluoroquinazolin-7-yl)-2-aminobenzo[b]thiophen-3-nitrile] |  | 25 |  |
| CN1CC[C@H](C(F)F)[C@](C)(COc2nc(N3C[C@H]4CC[C@@H](C3)N4)c3cc(Cl)c(-c4cccc5sc(N)c(C#N)c45)c(F)c3n2)C1 [Example 312-1, (4-((1R,5S)-3,8-diazabicyclo[3.2.1]octan-3-yl)-6-chloro-2-(((3S,4S)-4-(difluoromethyl)-1,3-dimethylpiperidin-3-yl)methoxy)-8-fluoroquinazolin-7-yl)-2-aminobenzo[b]thiophene-3-carbonitrile] |  |  | IC50 [2]: 11 nM |
| CN1CC/C(=C\F)[C@](C)(COc2nc(N3C[C@H]4CC[C@@H](C3)N4)c3cc(C(F)(F)F)c(-c4cccc5sc(N)c(C#N)c45)c(F)c3n2)C1 [Example 318, 4-(4-((1R,5S)-3,8-diazabicyclo[3.2.1]octan-3-yl)-8-fluoro-2-(((S,E)-4-(fluoromethylene)-1,3-dimethylpiperidin-3-yl)methoxy)-6-(trifluoromethyl)quinazolin-7-yl)-2-aminobenzo[b]thiophene-3-carbonitrile] |  | 28 |  |
| CN1CC[C@H](C(F)F)[C@](C)(COc2nc(N3C[C@H]4CC[C@@H](C3)N4)c3cc(C#N)c(-c4cccc5sc(N)c(C#N)c45)c(F)c3n2)C1 [Example 328, 7-(2-amino-3-cyanobenzo[b]thiophen-4-yl)-4-((1R,5S)-3,8-diazabicyclo[3.2.1]octan-3-yl)-2-(((3S,4S)-4-(difluoromethyl)-1,3-dimethylpiperidin-3-yl)methoxy)-8-fluoroquinazoline-6-carbonitrile] |  | 45 |  |
